Source: patent US5610174A, “Use of α1A -selective adrenoceptor agonists for the treatment of urinary incontinence” (priority 1995, dated 1997)
Read-outs that look alike come from different tables or passages of the source.

Experiments:
[1] = target: T1, human α2B adrenoceptor (Homo sapiens, UniProt P18089); assay: Inhibition of forskolin stimulated adenylyl cyclase, α2B; assay type: cell-based; design: expressed in transfected cells; host or cells: Y1 cells, line Ya2B-2 (ATCC CRL 11888); details: for Emax: read-out: intrinsic activity (i.a.) α2B
T1 sequence (P18089 1-450): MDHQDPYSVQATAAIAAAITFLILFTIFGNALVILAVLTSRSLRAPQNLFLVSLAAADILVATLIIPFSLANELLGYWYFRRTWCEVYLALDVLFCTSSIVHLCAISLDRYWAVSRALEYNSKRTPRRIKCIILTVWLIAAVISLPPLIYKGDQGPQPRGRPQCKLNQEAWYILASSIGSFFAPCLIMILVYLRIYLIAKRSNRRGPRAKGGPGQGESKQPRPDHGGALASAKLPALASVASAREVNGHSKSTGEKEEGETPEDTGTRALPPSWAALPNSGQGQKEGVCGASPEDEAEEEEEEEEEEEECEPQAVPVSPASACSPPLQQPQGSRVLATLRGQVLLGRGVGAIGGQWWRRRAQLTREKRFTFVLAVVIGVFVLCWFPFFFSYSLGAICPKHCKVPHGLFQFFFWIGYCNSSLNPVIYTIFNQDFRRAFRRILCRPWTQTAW
Method: α2 -Adrenoceptor-Mediated Inhibition of Forskolin Stimulated Adenylyl Cyclase
The agonist activity of test compounds was assayed by measuring their ability to inhibit adenylyl cyclase in cells stably transfected with each of the three cloned human α2 -adrenoceptors. LM(tk-) cells expressing the α2A - or the α2C -, as well as Y1 cells expressing the α2B -adrenoceptor were used. […] The formation of cyclic AMP was measured in cultures incubated with DMEM containing 1 mM theophylline. Twelve concentrations of the test compounds (from 10 pM to 100 μM) were added to the incubation medium and incubated at 37° C. for 20 min. Following this incubation step, 10 μM forskolin was added to stimulate the formation of cyclic AMP, and the cultures were incubated for another 10 min. The reaction was stopped by replacing the incubation medium with 100 mM HCl . The intracellular levels of cyclic AMP were measured by radioimmunoassay. The data from concentration-response curves was fitted to a four-parameter logistic equation, by non-linear regression analysis, to determine the pEC50 and intrinsic activity.

[2] = target: T2, human α1B adrenoceptor (Homo sapiens, UniProt P35368); assay: Radioligand binding ([3H]prazosin) at cloned human α1B
T2 construct: The entire coding region of the α1B receptor (1563 bp); expressed in transfected cells
T2 sequence (P35368 1-520): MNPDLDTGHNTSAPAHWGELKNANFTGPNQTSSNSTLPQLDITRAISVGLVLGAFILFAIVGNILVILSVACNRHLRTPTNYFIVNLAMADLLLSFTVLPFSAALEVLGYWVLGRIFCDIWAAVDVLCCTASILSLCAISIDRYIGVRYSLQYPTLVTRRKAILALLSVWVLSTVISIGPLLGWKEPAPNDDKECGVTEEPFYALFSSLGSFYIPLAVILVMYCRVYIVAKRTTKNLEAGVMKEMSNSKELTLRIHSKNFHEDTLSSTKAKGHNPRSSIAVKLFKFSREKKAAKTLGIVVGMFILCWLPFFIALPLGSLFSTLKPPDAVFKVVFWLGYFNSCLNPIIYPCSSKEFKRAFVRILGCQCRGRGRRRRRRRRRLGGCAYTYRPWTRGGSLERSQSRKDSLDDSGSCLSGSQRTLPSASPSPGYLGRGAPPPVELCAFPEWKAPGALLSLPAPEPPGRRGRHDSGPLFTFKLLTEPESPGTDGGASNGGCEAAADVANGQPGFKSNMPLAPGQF
Method: These cell lines were prepared by transfecting the cloned cDNA or cloned genomic DNA or constructs containing both genomic DNA and cDNA encoding the human α-adrenoceptors as follows:
The construct involved ligating the full-length containing EcoRI brainstem cDNA fragment from λ ZapII into the expression vector. Stable cell lines were obtained as described above.
Transfected cells from culture flasks were scraped into 5 ml of 5 mM Tris-HCl, 5 mM EDTA, pH 7.5, and lysed by sonication. The cell lysates were centrifuged at 1000 rpm. for 5 min at 4° C., and the supernatant was centrifuged at 30,000 ×g for 20 min at 4° C. The pellet was suspended in 50 mM Tris-HCl , 1 mM MgCl2, and 0.1% ascorbic acid at pH 7.5. […] The reaction was stopped by filtration through GF/B filters using a cell harvester.

[3] = target: human dopamine D3 receptor; assay: Radioligand binding at human dopamine D3
Method: Other Dopamine receptors were prepared by known methods. (D1 : Dearry et al., Nature, 347, 72, (1990), deposited with the European Molecular Biological Laboratory (EMBL) Genbank as X55760; D3 : Sokoloff, P. et al., Nature, 347, 146 (1990), deposited with the European Molecular Biological Laboratory (EMBL) Genbank as X53944; D5 : Sunahara, R. K., et al., Nature, 350, 614 (1991), deposited with EMBL Genbank as X58454-HU HD 5DR).

[4] = target: T3, rat atrial β-adrenoceptors (Rattus norvegicus, UniProt P18090); assay: β-Adrenoceptor activity in isolated rat right atrium; details: vs isoprenaline, up to 100 μM; for Ki: read-out: pKi β (rat atrial β-adrenoceptors) (converted)
T3 construct: Right atria were removed from rats and placed immediately into oxygenated Krebs solution; from tissue; host or cells: isolated, spontaneously beating rat right atrium
T3 sequence (P18090 whole entry): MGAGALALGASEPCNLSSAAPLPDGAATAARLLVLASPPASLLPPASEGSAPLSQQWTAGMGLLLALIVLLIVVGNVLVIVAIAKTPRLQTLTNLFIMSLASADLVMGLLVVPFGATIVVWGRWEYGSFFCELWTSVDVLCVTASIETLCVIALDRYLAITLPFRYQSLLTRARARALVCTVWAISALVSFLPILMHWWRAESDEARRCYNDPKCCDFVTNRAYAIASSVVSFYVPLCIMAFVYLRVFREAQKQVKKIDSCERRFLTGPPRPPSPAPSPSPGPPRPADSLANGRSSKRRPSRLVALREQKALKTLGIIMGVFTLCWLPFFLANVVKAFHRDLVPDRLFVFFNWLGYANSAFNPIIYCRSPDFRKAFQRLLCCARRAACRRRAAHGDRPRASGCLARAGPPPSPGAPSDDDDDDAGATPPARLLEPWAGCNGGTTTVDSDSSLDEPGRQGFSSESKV
Method: Determination of -Adrenoceptor Activity in the Isolated Rat Right Atrium
Right atria were removed from rats and placed immediately into oxygenated Krebs solution at 37° C. The Krebs solution was replaced three times at 5 min intervals and the tissues were tensioned three times to 0.5 g. In spontaneously beating atria, a control concentration effect curve to isoprenaline was generated. β-Adrenoceptor-mediated increase in atrial rate were measured as the response. […]. The antagonist effects of the test compounds were measured using the dose-ratio method, by comparing the shift in pEC50 for isoprenaline.

[5] = agonist, inhibition of forskolin stimulated adenylyl cyclase, read-out: pEC50 α2B (converted)
[6] = relative to reference full agonist (e.g., norepinephrine = unity)

`C[C@H](N)[C@H](O)c1ccccc1` [(-)-norephedrine] showed an EC50 [1] of 0.794 µM, an Emax [1] of 50% and a Ki [2] of 50.1 µM.

With `CNCCc1ccc(O)c(NS(C)(=O)=O)c1` [SK&F 102652] the “pKi D3” value [3] was 6.7, the Emax [1] was 90% and the “pKi β (rat atrial β-adrenoceptors)” value [4] was less than 4.

`COc1cc2c(cc1OC)CN(c1cc(N)c3cc(OC)c(OC)cc3n1)CC2` [Abanoquil, 2-(6,7-Dimethoxy-3,4-dihydro-1H-isoquinolin-2-yl)-6,7-dimethoxyquinolin-4-ylamine hemifumarate hydrate] was tested, and the “pKI (antagonist affinity, 3H-prazosin binding) hα1B” value ([2]; Table 2, antagonists, versus 3H-prazosin) was 10.1.

For `CS(=O)(=O)Nc1c(O)ccc2c1CCCC2C1=NCCN1` (racemic) [Compound A-61603, (±)-N-[5-(4,5-Dihydro-1H-imidazol-2-yl)-2-hydroxy-5,6,7,8-tetra-hydronaphthalen-1-yl]methanesulfonamide], the “pKi D3” value [3] was 5.8, the EC50 [1, 5] was 0.0794 µM and the Emax [1, 6] was 80%. The Ki [2] was 15.8 µM and the Ki [4] was greater than 100 µM.

With `CN[C@@H](C)[C@H](O)c1ccccc1` [(-)-ephedrine] the EC50 [1] was 0.251 µM, the Emax [1] was 40% and the Ki [2] was 100 µM.

For `CNC[C@H](O)c1cccc(O)c1` [(-)-phenylephrine], the “intrinsic activity (i.a.) α2B” value [1, 6] was 0.8.

In the case of `COc1ccc(SC)c2c1C[C@@H]1[C@@H](C2)OCCN1C` (relative stereo) [SDZ NVI-085, (±)-trans-4-Methyl-6-methoxy-9-thiomethoxy-3,4,4a, 5,10,10a-hexahydro-2H-naphtho[2,3-b][1,4]oxazine], the “pKi D3” value [3] is reported as 6.0, the EC50 [1, 5] is reported as greater than 100 µM and the Emax [1] is reported as 0%. For the same compound, the Ki ([2]; Table 3, agonists, read-out: pKi α1B (converted)) was 12.6 µM and the Ki [4] was greater than 100 µM.

In the case of `COc1ccccc1N1CCN(CCCNc2c(C)c(=O)n(C)c(=O)n2C)CC1` [Compound 5-MU], the Ki ([2]; Table 2, antagonists, versus 3H-prazosin, read-out: pKI (antagonist affinity, 3H-prazosin binding) hα1B (converted)) is reported as 0.126 µM.

With `COc1ccc(OC)c(C(O)CN)c1` (racemic) [ST-1059, (±)-2-Amino-1-(2, 5 dimethoxyphenyl) ethanol] the EC50 [1] was 0.00251 µM, the Emax [1] was 60% and the Ki [2] was 12.6 µM.
